According to ChEMBL document CHEMBL3507680, “University of Dundee, Gates Library screen for HepG2 cell viability”:

Test: Human HepG2 cell viability assay in 384 well format
Type: toxicity, cell-based
Parameters: dose 125 nL, time 70.5 hour; cytotoxicity at 70.5 h: concentration not given beside the values
Settings: HepG2 cells, read-out: Inhibition

Going from `CC(=O)N(Cc1noc(C2CC2)n1)C1CCN(Cc2nccn2C)C1` (stereo unspecified) to `Cc1noc(CN2CCC(c3ccnn3CCO)CC2)n1`, the cytotoxicity at 70.5 h falls from -5.66% to -13.4%.

Going from `CNC(=O)C1CCN(Cc2nc(-c3ccc(SC)cc3)oc2C)C1` (stereo unspecified) to `Cc1nc(C)c(C(=O)Nc2cccc(CN3CCC(CO)CC3)c2)o1`, the cytotoxicity at 70.5 h rises from -6.93% to 0.852%.

Compared with `CN1CC(C(=O)NCc2ccc(OCc3cccnc3)cc2)CC1=O` (stereo unspecified), `Cc1cnn(CC2CCCCN2C(=O)c2ccc(CN(C)C)cc2)c1` (stereo unspecified) is lower in cytotoxicity at 70.5 h: 12.9% for the first, -8.06% for the second.

Going from `Cn1nc(C(=O)N(CC(F)(F)F)c2cccc(Cl)c2)ccc1=O` to `CN(Cc1cc(Br)cn1C)C(=O)c1cc(Cl)ccn1`, the cytotoxicity at 70.5 h rises from 9.92% to 30.9%.

Compared with `CN1CCN(C(=O)c2cnsn2)c2cc(F)ccc21`, `CC(C)c1noc(CN2CCN(C(=O)c3ccc(F)cc3)CC2)n1` is lower in cytotoxicity at 70.5 h: 1.4% for the first, -3.61% for the second.

Going from `CCCC(=O)NC1CCCN(C(=O)c2ccc(C)nc2)C1` (stereo unspecified) to `CC(C)(C)OC(=O)N1CCC(C(=O)NCCNc2ncccn2)CC1`, the cytotoxicity at 70.5 h falls from 14.6% to -7.43%.

Going from `CC(C)n1cc(C(=O)NC2CCS(=O)(=O)C2)c2ccccc2c1=O` (stereo unspecified) to `Cc1nn(C2CCS(=O)(=O)C2)c(C)c1CC(=O)NCc1ccccc1Cl` (stereo unspecified), the cytotoxicity at 70.5 h rises from -14.3% to -4.52%.

Compared with `CCSc1ccc(C(=O)N2CCC3(CCC(=O)N(C)C3)CC2)s1`, `O=C1CC2(CCN(CCCF)CC2)CN1Cc1cc(F)cc(F)c1` is higher in cytotoxicity at 70.5 h: -9.54% for the first, 8.23% for the second.

First: CC(Cn1cccn1)NCc1csc(-c2ccc3c(c2)OCO3)n1 (stereo unspecified)
Second: COc1ccccc1Cc1cc(O)nc(NC(C)CN(C)C)n1 (stereo unspecified)
The cytotoxicity at 70.5 h of the first is lower: -5.39% for the first, 2.81% for the second.

Compared with `CN(C)[C@@H]1CCN(C(=O)Cc2cccs2)[C@H]1Cc1ccncc1`, `O=C(CCCc1nnc(-c2ccccc2)o1)N1CCC1` is lower in cytotoxicity at 70.5 h: -8% for the first, -14.2% for the second.

Going from `COCc1cccc(S(=O)(=O)N2CCSCC2)c1` to `O=C1OCCN1CCS(=O)(=O)c1cccc(Br)c1`, the cytotoxicity at 70.5 h falls from 14% to -2.02%.

Compared with `COc1c(C2CCCN2C(=O)c2ccc(C#N)cc2)c(C)nn1C` (stereo unspecified), `CC(C)Oc1ccc(C(=O)N2CCCSCC2CN(C)C)cc1` (stereo unspecified) is higher in cytotoxicity at 70.5 h: -9.49% for the first, 26.1% for the second.

Going from `Cc1ccc(F)c(C(=O)NC2CCC(N3C(=O)CCC3=O)CC2)c1` (stereo unspecified) to `N[C@H]1CC[C@@H](n2cc(C(=O)NC3COc4ccccc43)nn2)CC1` (stereo partly specified), the cytotoxicity at 70.5 h rises from -0.936% to -0.524%.

Going from `CCc1nc2c(c(NCc3cc(-c4cccnc4)no3)n1)CCNCC2` to `OC1(CNc2ccc(-c3nc(C4CC4)no3)cn2)CCCCC1`, the cytotoxicity at 70.5 h rises from 7.07% to 22%.

Compared with `CCOCCCOC(=O)c1ccc2c(c1)[nH]c(=O)n2C`, `COCCOc1ccc(NC(=O)N(C)Cc2ccsc2)cn1` is lower in cytotoxicity at 70.5 h: 18.6% for the first, 3.32% for the second.

First: c1cc(CN2CCC3(CC2)COC(COCC2CC2)C3)co1 (stereo unspecified)
Second: CCSc1ncc(CN2CCC(O)(CN3CCOCC3)C(C)(C)C2)cn1 (stereo unspecified)
The cytotoxicity at 70.5 h of the first is lower: -20.3% for the first, 38.5% for the second.

Going from `CC(=O)N1CCN(C(=O)CCn2c(C)nc3ccccc3c2=O)CC1` to `COc1ccc(NC(C)C(=O)N2CCN(c3ccccc3)CC2)cn1` (stereo unspecified), the cytotoxicity at 70.5 h rises from -7.85% to -3.71%.

Compared with `COC(C)(C)C(=O)N[C@H]1CN(c2ncccc2C(N)=O)C[C@@H]1C(C)C`, `CCNC(=O)NC1CN(Cc2ccncc2Cl)C[C@@H]1OC` (stereo partly specified) is higher in cytotoxicity at 70.5 h: 0.335% for the first, 28.4% for the second.

First: Cc1nc2c(cc1C(=O)O)CCN(CC1CC1)CC2
Second: CCn1cnnc1C1CCN(C(=O)c2ccoc2C)CC1
The cytotoxicity at 70.5 h of the first is lower: -3.49% for the first, 11.9% for the second.

Going from `CNc1cc(N2CCCC2CNCc2cnc(C)cn2)ncn1` (stereo unspecified) to `Cc1nc(CN2CCCC(NCc3ccc(Cl)s3)C2)no1` (stereo unspecified), the cytotoxicity at 70.5 h falls from -8.09% to -13%.

First: Cc1c(C(=O)O)oc2ccc(I)cc12
Second: Cc1noc(C)c1C(=O)N(C)C(C)c1ccc(S(C)(=O)=O)cc1 (stereo unspecified)
The cytotoxicity at 70.5 h of the first is higher: -5.09% for the first, -20.5% for the second.

Compared with `CCc1nc(C2CCCN2CC(=O)Nc2c(C)n[nH]c2C)no1` (stereo unspecified), `COc1c(CNCc2nnc3n2CCCCC3)c(C)nn1C` is lower in cytotoxicity at 70.5 h: 5.42% for the first, -6.68% for the second.

Compared with `COCC1c2c(cnn2C)CCN1C(=O)c1cccn1C` (stereo unspecified), `Cn1ncc(Cl)c1C(=O)N1CCc2nc3sccc3c(=O)n2CC1` is higher in cytotoxicity at 70.5 h: -6.36% for the first, 33.8% for the second.

Going from `Cc1cccc(N2CC[C@@H]3[C@@H](CO[C@H]3CNC(=O)c3ccco3)C2)n1` to `Cc1cnc(CN2CCCC(c3nc4ccccc4n3C(C)C)C2)o1` (stereo unspecified), the cytotoxicity at 70.5 h rises from -0.126% to 20.6%.

Going from `Cc1ccc(-n2cc(C(=O)N3CCn4c(C)nnc4C3)nn2)cc1` to `Cc1ccc(Sc2nccn(C)c2=O)cc1`, the cytotoxicity at 70.5 h falls from 26.8% to -3.35%.

Compared with `Cc1ccc(OCC(=O)N2CCOCC(O)(CN3CCCC3)C2)cc1C` (stereo unspecified), `O=C(NCCCN1CCOCC1)c1cc(-c2ccccc2)[nH]n1` is lower in cytotoxicity at 70.5 h: 27.8% for the first, -1.59% for the second.

First: O=C(c1ccccc1)N1CCN(C2CCc3ccc(F)cc32)CC1 (stereo unspecified)
Second: CC1(C)CN(C(=O)NCCc2ccn(-c3ccccc3)n2)CCO1
The cytotoxicity at 70.5 h of the first is higher: -9.61% for the first, -12.4% for the second.

Compared with `Cc1cc(CNCc2c(C(C)C)nn(C)c2N2CCOCC2)no1`, `COc1c(C)cnc(CN2CCOC(Cn3nc(C)cc3C)C2)c1C` (stereo unspecified) is higher in cytotoxicity at 70.5 h: -6.34% for the first, -2.15% for the second.
